# In PMC12040169 (PLOS Biology, 2025):
# Assay: in vitro
# Conditions: human, hela cells, % viability
row,Structure (SMILES),"viability at 28.5 h, 10 µM"
1,Cn1cccc1C(=O)OCC(=O)N1CCCCC1 [CBK305903],99.5%
2,COc1ccc(CNC(=O)c2sccc2S(=O)(=O)N2CCCCC2)cc1 [CBK305904],101%
3,Cc1oc(NC(=O)CN2CCN(c3cccc(Cl)c3)CC2)c(C#N)c1C [CBK305906],82.5%
4,Cc1oc(NC(=O)CN2CCN(c3ccc(F)cc3)CC2)c(C#N)c1C [CBK305907],86.7%
5,Cc1oc(NC(=O)CN2CCN(c3ccccc3Cl)CC2)c(C#N)c1C [CBK305908],84.7%
6,COc1ccc(-c2csc(N3CCN(C)CC3)n2)cc1F [CBK305910],88.7%
7,CCCn1c(CN2CCOCC2)nc2c1c(=O)n(C)c(=O)n2C [CBK305911],103%
8,CC(C)Cn1c(CN2CCOCC2)nc2c1c(=O)n(C)c(=O)n2C [CBK305913],91.3%
9,Cc1cccc(OCC(=O)Nc2ncccc2OCCCC#N)c1 [CBK305918],90.5%
10,O=C(CN1CCCN(c2nccs2)CC1)Nc1cc(Cl)ccc1Cl [CBK305921],99.7%
11,Cc1c(C(=O)N2CCCC2C(N)=O)nnn1Cc1ccc(F)cc1F (centres unmarked) [CBK305925],94.5%
12,FC(F)(F)c1nnc2ccc(N3CCN(Cc4ccsc4)CC3)nn12 [CBK305930],88.6%
13,COc1ccc(Cl)cc1CN(C)C(=O)c1ccc[nH]c1=O [CBK305933],90.6%
14,CCC1CCC2(CC1)NC(=O)N(CC(=O)Nc1nccs1)C2=O (centres unmarked) [CBK305936],95.9%
15,Cc1noc(C)c1CCC(=O)NCc1cccc(C#N)c1 [CBK305938],108%
16,Cc1ccc(-c2nn(CCC#N)cc2C(=O)N2CCOCC2)cc1C [CBK305940],96.7%
17,CCN(CC)C(=O)c1cn(CCC#N)nc1-c1cccc(OC)c1 [CBK305941],92.6%
18,CCCC(=O)Nc1ccc(OCc2nnc(C)o2)c(C(C)=O)c1 [CBK305943],92.9%
19,CC1CCc2c(sc3ncnc(NCCCN4CCCCCC4=O)c23)C1 (centres unmarked) [CBK305947],85.4%
20,O=C(Cn1cccnc1=O)NCc1cccnc1OCC(F)(F)F [CBK305949],109%
21,Cc1cc(Br)ccc1C(=O)N1CC(C(N)=O)CCC1C (centres unmarked) [CBK305954],83.2%
22,CN(C)C(=O)c1cccc(CNc2ncnc3c2cnn3CCC#N)c1 [CBK305955],88.3%
23,CC1CN(c2ccc(CNc3ncccc3C#N)cn2)CCO1 (centres unmarked) [CBK305957],99.5%

row,Structure (SMILES),"viability at 28.5 h, 10 µM"
1,CC(Sc1nc2ccc(F)cc2c(=O)[nH]1)C(=O)N1CCOCC1 (centres unmarked) [CBK305958],108%
2,OCCn1ncc2c(Nc3cccc(Cn4cncn4)c3)ncnc21 [CBK305965],115%
3,CCc1ccc(NC(=O)CN(CCO)Cc2cc(Br)ccc2F)cc1 [CBK305968],84.8%
4,COc1ccc(C)cc1-n1ccc(C(=O)N2CCSCC2)n1 [CBK305972],96.5%
5,Cc1ccc(-c2nn(CCC#N)cc2C(=O)N2CCCC2)cc1C [CBK305974],86.8%
6,CC(=O)N(C)Cc1cccc(Nc2ncnc3c2cnn3CCO)c1 [CBK305979],96.1%
7,O=C(NCCN1CCCCC1)C1CC(=O)N(CCc2ccccc2)C1 (centres unmarked) [CBK305986],91.7%
8,CS(=O)(=O)N1CCC(Nc2nc(-c3cccs3)nc3ccccc23)CC1 [CBK305987],87.3%
9,COC(=O)C(C)(C)NC(=O)c1ccn(-c2cc(C)ccc2OC)n1 [CBK305989],107%
10,O=C(CN1CCC(NC(=O)c2cccs2)CC1)Nc1ccc(F)c(F)c1 [CBK305991],83.8%
11,CCN(CC(C)C#N)C(=O)c1cc2ccccc2oc1=O (centres unmarked) [CBK305992],87.8%
12,CCOc1ccc2c(c1)CN(CC(=O)Nc1cc(C)no1)CC2 [CBK305993],92.9%
13,CC(C)Cc1noc(CN2CCC(C(=O)NCc3ccco3)CC2)n1 [CBK305995],107%
14,CC(=O)Nc1cccc(-n2nnnc2SC2CCCC2)c1 [CBK305996],95.3%
15,O=C(CN1CCC(NC(=O)c2cccs2)CC1)Nc1cc(F)ccc1F [CBK305997],102%
16,Cc1noc(C)c1CN1CCC(c2ccccc2)CC1 [CBK306001],89.9%
17,N#Cc1ccc(OCC(=O)Nc2cccnc2-n2cncn2)cc1 [CBK306004],85.9%
18,CCOC(=O)CN1CCN(c2cc(C#N)ccn2)CC1 [CBK306006],89.3%
19,CCOC(=O)c1cc2cc(NC(=O)N(CCO)C3CC3)ccc2s1 [CBK306007],87.6%
20,Cc1nnc(CCNC(=O)c2cccc(C#N)c2)n1C [CBK306017],85.4%
21,Cc1cc(N2CCOC(c3nc(C)n[nH]3)C2)c2ccc(F)c(F)c2n1 (centres unmarked) [CBK306018],92.2%
22,CCN(CCO)C(=O)C(C)Oc1cc(C)ccc1Cl (centres unmarked) [CBK306019],86.6%
23,CCNS(=O)(=O)c1ccc2c(c1)N(Cc1cccnc1C)CC2 [CBK306020],92.1%

row,Structure (SMILES),"viability at 28.5 h, 10 µM"
1,CCOc1ccc(NC(=O)CCc2ncc(C(C)(C)C)o2)c(C)c1 [CBK306021],104%
2,CSc1nnc(CCCNC(=O)c2cccc(C#N)c2)n1CC(C)C [CBK306023],108%
3,CC(=O)C(C)n1c(=O)c2c(nc3oc(C(C)(C)C)cn32)n(C)c1=O (centres unmarked) [CBK306027],91.1%
4,COC(=O)Cn1c(=O)c2c(nc3oc(C(C)(C)C)cn32)n(C)c1=O [CBK306029],84.5%
5,Cn1ccc(NC(=O)c2cccc(S(=O)(=O)N3CCCC3)c2)n1 [CBK306032],104%
6,COC(=O)CCn1c(=O)c2c(nc3oc(C)c(C)n32)n(C)c1=O [CBK306033],109%
7,CCn1c(SCC(=O)NC(=O)NC2CCCCC2)nc2ccccc21 [CBK306037],93.6%
8,O=C1CN(Cc2nc(-c3cccc(C(F)(F)F)c3)no2)CCN1 [CBK306038],92.9%
9,CC(=O)Nc1cccc(C(=O)OCC(=O)c2cccs2)c1 [CBK306040],105%
10,COC(=O)c1ccc2c(=O)n(CC3CCCO3)c(SCCO)nc2c1 (centres unmarked) [CBK306041],109%
11,COC(=O)c1ccc2c(=O)n(CC(C)C)c(SC)nc2c1 [CBK306042],81.3%
12,Cc1nn(-c2ccccc2)c(Cl)c1CN1C(=O)NC2(CCCCC2)C1=O [CBK306043],83.8%
13,COC(=O)c1sc2[nH]c(CN(C)Cc3ccco3)nc(=O)c2c1C [CBK306047],82.6%
14,O=C(NCC(=O)N1CCc2ccccc2C1)C1CCCCC1 [CBK306049],107%
15,Cc1cc(C(=O)CSc2nnc(N3CCCC3)n2C2CC2)c(C)n1C [CBK306051],65.1%
16,Cc1nn(C)c(C)c1NC(=O)CN1CCN(c2cccc(Cl)c2)CC1 [CBK306052],81.1%
17,CC1CCCN(Cc2nc3c([nH]2)c(=O)n(C)c(=O)n3C)C1 (centres unmarked) [CBK306054],88.7%
18,Cc1nc(CN2CCN(c3ccc4nnnn4n3)CC2)cs1 [CBK306056],79.3%
19,Cc1nn(C)c(C)c1NC(=O)CN1CCN(c2ccccc2Cl)CC1 [CBK306058],82.6%
20,CC(=O)C(C)n1c(CN2CCCC(C)C2)nc2c1c(=O)n(C)c(=O)n2C (centres unmarked) [CBK306061],88.2%
21,COCCn1c(CN2CCCC(C)C2)nc2c1c(=O)n(C)c(=O)n2C (centres unmarked) [CBK306063],108%
22,Cc1cc(C(=O)N2CCc3c(sc4ncnc(N)c34)C2)on1 [CBK306067],85.1%
23,O=C(CCc1nc2sc3c(c2c(=O)[nH]1)CCCC3)N1CCCC1 [CBK306069],90.8%

row,Structure (SMILES),"viability at 28.5 h, 10 µM"
1,CCN(CC(=O)NCc1ccc(F)cc1)S(=O)(=O)c1c(C)n[nH]c1C [CBK306074],93.3%
2,CN(C(=O)CCc1nc2sc3c(c2c(=O)[nH]1)CCCC3)C1CCCCC1 [CBK306075],88.2%
3,COc1ccc(CC(=O)NC(CCSC)c2nnc3ccccn23)cc1 (centres unmarked) [CBK306077],96%
4,CC1CCc2c(sc3ncnc(NCC(=O)N4CCCC4)c23)C1 (centres unmarked) [CBK306079],103%
5,Cc1cc(NC(=O)Cc2cn3ccsc3n2)ccc1N1CCCC1 [CBK306080],79.8%
6,CS(=O)(=O)NC1CCN(S(=O)(=O)c2cc(Cl)cc(Cl)c2)CC1 [CBK306082],84.3%
7,Cc1nc2nc(N)nn2c(C)c1CCC(=O)OCc1cccc(C#N)c1 [CBK306083],88.1%
8,CCOCCCn1c(SC(C)C#N)nc2ccc(Br)cc2c1=O (centres unmarked) [CBK306084],85.7%
9,CC1CCCCN1C(=O)CCc1nc2sc3c(c2c(=O)[nH]1)CCCC3 (centres unmarked) [CBK306086],112%
10,CCCC(=O)Nc1ccc(-c2csc(N3CCCC3=O)n2)cc1 [CBK306088],82%
11,CC(=O)c1cccc(NC(=O)CCn2[nH]c(=O)ccc2=O)c1 [CBK306094],91.4%
12,O=C(c1ccccc1)N1CCN(Cc2cc(=O)n3ccsc3n2)CC1 [CBK306095],94.4%
13,O=C(c1ccccc1O)N1CCN(Cc2cc(=O)n3ccsc3n2)CC1 [CBK306096],90.2%
14,CCc1nnc(SCC(=O)Nc2ccc(CN3CCOCC3)cc2)[nH]1 [CBK306097],84.7%
15,O=C(c1ccc(O)nc1)N1CCN(Cc2cc(=O)n3ccsc3n2)CC1 [CBK306098],86.3%
16,COCCNC(=O)c1cc(C2CC2)nc2c1cnn2C(C)C [CBK306099],101%
17,CCN1CCC(NC(=O)CSc2nc3ccccc3n2CCOC)CC1 [CBK306100],118%
18,COCCN1CCN(c2nc(-c3ccncc3)nc3c2CCC3)CC1 [CBK306101],95.7%
19,Cc1nc(C)n(CC2CCCCN2Cc2cn3ccccc3c2C#N)n1 (centres unmarked) [CBK306102],85.1%
20,Cc1nc(C)n(CC2CCCN(Cc3cn4ccccc4c3C#N)C2)n1 (centres unmarked) [CBK306103],92.6%
21,CN(CC(=O)Nc1ccn(Cc2cccnc2)n1)c1ccc(C#N)cn1 [CBK306105],87.3%
22,CN(C(=O)c1cccn1C)C1CCN(c2ncnc3ccccc23)CC1 [CBK306110],91.8%
23,NC(=O)COc1ccc(CNC(=O)CN2CCc3sccc3C2)cc1 [CBK306111],99.4%
